Test results: US12156880B2, “Heterocyclic RIP1 kinase inhibitors” (Rigel Pharmaceuticals, Inc., priority 2021, dated 2024)

Assays:
[1] = biological target: T1, RIPK1 (Homo sapiens, UniProt Q13546); assay: RIPK1 ADP-Glo biochemical kinase assay; conditions: read-out: RIPK1 ADP-Glo Kinase (IC50)
T1 sequence (Q13546 1-671): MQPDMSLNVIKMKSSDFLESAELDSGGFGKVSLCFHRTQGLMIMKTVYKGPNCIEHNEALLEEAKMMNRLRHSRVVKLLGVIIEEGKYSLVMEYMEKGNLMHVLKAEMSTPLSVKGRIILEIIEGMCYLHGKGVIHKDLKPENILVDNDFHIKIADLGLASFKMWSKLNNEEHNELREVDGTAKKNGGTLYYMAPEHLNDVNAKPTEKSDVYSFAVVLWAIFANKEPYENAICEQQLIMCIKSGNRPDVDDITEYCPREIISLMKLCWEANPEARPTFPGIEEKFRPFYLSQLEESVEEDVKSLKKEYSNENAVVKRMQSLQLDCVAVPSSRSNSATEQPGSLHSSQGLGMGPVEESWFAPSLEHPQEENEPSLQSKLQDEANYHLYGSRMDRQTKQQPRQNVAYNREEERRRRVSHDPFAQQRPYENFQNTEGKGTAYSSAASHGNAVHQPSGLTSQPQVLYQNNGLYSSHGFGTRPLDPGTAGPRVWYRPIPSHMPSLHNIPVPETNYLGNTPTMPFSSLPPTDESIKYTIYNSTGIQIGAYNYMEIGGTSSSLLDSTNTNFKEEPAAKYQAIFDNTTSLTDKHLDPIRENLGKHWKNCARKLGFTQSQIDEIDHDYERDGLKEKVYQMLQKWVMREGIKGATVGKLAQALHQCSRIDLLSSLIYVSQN
Method: In this example, compounds of the disclosure were evaluated using a biochemical assay using the ADP-Glo™ technology.
ADP-Glo™ (Promega, Madison, WI, USA) reagents were thawed at ambient temperature. Kinase Detection Reagent was prepared by mixing kinase detection buffer with the lyophilized kinase detection substrate.
A […] stock volume of 5× Reaction Kinase Buffer was made by mixing 1000 μl of 1M MgCl2, 500 μl of 1M Tris-HCL pH7.4, 0.5 mg/ml (25 mg) of BSA, and 3475 μl of distilled H2O. A 3 ml 2× working stock volume of Reaction Kinase Buffer was made containing a final concentration of 100 μM DTT and 4 mM MnCl2.
Components of RIPK1 enzyme (Rigel Pharmaceuticals, South San Francisco, CA, USA) were thawed on ice. Diluted RIPK1 was prepared in 1× Kinase Reaction Buffer (diluted from 2× buffer) to 31 ng/well.
1.0 ul of diluted compound was added to a 384 well plate in duplicate. […] The final reaction volume was 5.0 μl.
The plate was quickly centrifuged and the reaction was incubated at 30° C. for 30 minutes. Adding 5 μl of ADP-Glo™ terminated the reaction. The plate was quickly centrifuged and the reaction was incubated at room temperature for 40 minutes. Kinase Detection Reagent was then added and incubated at room temperature for 30 minutes. The relative light unit (RLU) of kinase reaction was determined by luminescent (Luminescence 0.1 s) using a Wallac Victor2 Luminometer (PerkinElmer, Waltham, MA, USA).

[2] = tested on: U937 cells; assay: U937 cell necroptosis assay (TNFa + zVAD, CellTiter-Glo recovery); format: cell-based; conditions: Homo sapiens, U-937, 18 h, TNFa 2 ng/mL + zVAD-fmk, read-out: U937 Zvad TNF CTG Recovery, U937, TNFa + zVAD (IC50)
Method: In this example, U937 and L929 cells were exposed to compounds of the present disclosure and a cell necroptosis assay was conducted to evaluate the compounds' activity against human RIP1 and murine RIP1.
U937 and L929 cells were obtained from the American Type Culture Collection (Manassas, VA, USA). Both cells were maintained in logarithmic growth phase in complete RPMI 1640 media (Sigma, ST Louis, MO, USA) supplemented with 10% fetal bovine serum (Sigma, ST Louis, MO, USA) at 37° C. with 5% CO2. For necroptosis assay, L929 cells were plated for 18 h in 100 μL/well medium at 10K cells/well in Costar 96-well black clear-bottom plates (Fisher Scientific, Hampton, NH, USA); U937 cells were plated on the day of the assay in 50 μL/well medium containing 60 uM zVAD-fmk (Lonza, Basel, Switzerland) at 50K cells/well. Medium from L929 cells were removed from the 96-well plates and replaced with 50 μL/well new medium containing 40 uM zVAD-fmk. Each compound of the present disclosure evaluated in this example was serially diluted in DMSO from 2.5 mM in 4-fold dilutions, and then diluted 1:125 in complete medium. 50 μL/well 2× of the compound was then added to the cells in the plates. The cells were pre-incubated with the compound for 1 hour at 37° C. with 5% CO2 and before addition of 10 μL/well 11×TNFa (Peprotech, Rocky Hill, NJ, USA) to give a final concentration of 2 ng/mL for TNFa. The relative amount of necroptosis cells was determined by luminescent using a Wallac Victor2 Luminometer (PerkinElmer, Waltham, MA, USA) and a CellTiter-Glo® Luminescent Cell Viability Reagent Assay (Promega, Madison, WI, USA) added per manufacturer instructions after 18 hours of TNFa stimulation at 37° C. with 5% CO2. This example establishes that embodiments of the compounds described herein have unexpectedly potent activity against human RIP1 and murine RIP1, which allows their assessment in in vivo mouse models of disease.

IC50 [1] | SMILES | IC50 [2]
– | Cc1cccc(Cc2cnn(C(=O)N[C@H]3COc4ccc(Br)cc4N(C)C3=O)c2)n1 [I-19, (S)—N-(7-Bromo-5-methyl-4-oxo-2,3,4,5-tetrahydrobenzo[b][1,4]oxazepin-3-yl)-4-((6-methylpyridin-2-yl)methyl)-1H-pyrazole-1-carboxamide] | 264 nM
– | CN1C(=O)[C@@H](NC(=O)n2cc(Cc3ccc(F)nc3)cn2)COc2ccc(Br)cc21 [I-24, (S)—N-(7-Bromo-5-methyl-4-oxo-2,3,4,5-tetrahydrobenzo[b][1,4]oxazepin-3-yl)-4-((6-fluoropyridin-3-yl)methyl)-1H-pyrazole-1-carboxamide] | 69.8 nM
– | CN1C(=O)[C@@H](NC(=O)n2cc(Cc3cccnn3)cn2)COc2ccc(Br)cc21 [I-25, (S)—N-(7-Bromo-5-methyl-4-oxo-2,3,4,5-tetrahydrobenzo[b][1,4]oxazepin-3-yl)-4-(pyridazin-3-ylmethyl)-1H-pyrazole-1-carboxamide] | 4120 nM
467 nM | Cc1noc(C)c1Cc1ccnc(C(=O)N[C@H]2COc3ccc(C#CC(C)(C)O)cc3N(C)C2=O)c1 [I-68, (S)-4-((3,5-dimethylisoxazol-4-yl)methyl)-N-(7-(3-hydroxy-3-methylbut-1-yn-1-yl)-5-methyl-4-oxo-2,3,4,5-tetrahydrobenzo[b][1,4]oxazepin-3-yl)picolinamide] | 7160 nM
326 nM | Cc1noc(C)c1Cc1ccnc(C(=O)N[C@H]2COc3ccc(C#CC4(O)COC4)cc3N(C)C2=O)c1 [I-69, (S)-4-((3,5-dimethylisoxazol-4-yl)methyl)-N-(7-((3-hydroxyoxetan-3-yl)ethynyl)-5-methyl-4-oxo-2,3,4,5-tetrahydrobenzo[b][1,4]oxazepin-3-yl)picolinamide] | 2830 nM
4530 nM | CN1C(=O)[C@@H](NC(=O)c2cc(Oc3ccc(C(F)(F)F)nc3)ccn2)COc2ccc(C#CC(C)(C)O)cc21 [I-80, (S)—N-(7-(3-hydroxy-3-methylbut-1-yn-1-yl)-5-methyl-4-oxo-2,3,4,5-tetrahydrobenzo[b][1,4]oxazepin-3-yl)-4-((6-(trifluoromethyl)pyridin-3-yl)oxy)picolinamide] | 7310 nM
392 nM | CN1C(=O)[C@@H](NC(=O)c2cc(Oc3ccc(C(F)(F)F)nc3)ccn2)COc2ccc(C#CC3(O)COC3)cc21 [I-81, (S)—N-(7-((3-hydroxyoxetan-3-yl)ethynyl)-5-methyl-4-oxo-2,3,4,5-tetrahydrobenzo[b][1,4]oxazepin-3-yl)-4-((6-(trifluoromethyl)pyridin-3-yl)oxy)picolinamide] | 5290 nM
– | CN1C(=O)[C@@H](NC(=O)c2cc(O)ccn2)COc2ccc(C#CC(C)(C)O)cc21 [I-86, (S)-4-hydroxy-N-(7-(3-hydroxy-3-methylbut-1-yn-1-yl)-5-methyl-4-oxo-2,3,4,5-tetrahydrobenzo[b][1,4]oxazepin-3-yl)picolinamide] | 59600 nM
– | CN1C(=O)[C@@H](NC(=O)c2cc(O)ccn2)COc2ccc(C#CC3(O)COC3)cc21 [I-89, (S)-4-hydroxy-N-(7-((3-hydroxyoxetan-3-yl)ethynyl)-5-methyl-4-oxo-2,3,4,5-tetrahydrobenzo[b][1,4]oxazepin-3-yl)picolinamide] | 28200 nM
6470 nM | CN1C(=O)[C@@H](NC(=O)n2cc(Oc3cccc(F)n3)cn2)COc2ccc(Br)cc21 [I-110, (S)—N-(7-Bromo-5-methyl-4-oxo-2,3,4,5-tetrahydrobenzo[b][1,4]oxazepin-3-yl)-4-((6-fluoropyridin-2-yl)oxy)-1H-pyrazole-1-carboxamide] | 9070 nM
80.4 nM | CN1C(=O)[C@@H](NC(=O)n2cc(Oc3cccc(F)n3)cn2)COc2ccc(C#CC(C)(C)O)cc21 [I-112, (S)-4-((6-Fluoropyridin-2-yl)oxy)-N-(7-(3-hydroxy-3-methylbut-1-yn-1-yl)-5-methyl-4-oxo-2,3,4,5-tetrahydrobenzo[b][1,4]oxazepin-3-yl)-1H-pyrazole-1-carboxamide] | 1850 nM
2150 nM | CN1C(=O)[C@@H](NC(=O)c2cc(Oc3ccccn3)ccn2)COc2ccc(C#CC(C)(C)O)cc21 [I-128, (S)—N-(7-(3-hydroxy-3-methylbut-1-yn-1-yl)-5-methyl-4-oxo-2,3,4,5-tetrahydrobenzo[b][1,4]oxazepin-3-yl)-4-(pyridin-2-yloxy)picolinamide] | 199000 nM

SMILES | IC50 [1] | IC50 [2]
CN1C(=O)[C@@H](NC(=O)n2cc(Cc3ccccn3)cn2)COc2ccc(C#CC(C)(C)O)cc21 [I-8, (S)—N-(7-(3-Hydroxy-3-methylbut-1-yn-1-yl)-5-methyl-4-oxo-2,3,4,5-tetrahydrobenzo[b][1,4]oxazepin-3-yl)-4-(pyridin-2-ylmethyl)-1H-pyrazole-1-carboxamide] | 26.4 nM | –
CN1C(=O)[C@@H](NC(=O)c2cc(Cc3cccc(O)n3)ccn2)COc2ccc(C#CC3(O)COC3)cc21 [I-10, (S)—N-(7-((3-hydroxyoxetan-3-yl)ethynyl)-5-methyl-4-oxo-2,3,4,5-tetrahydrobenzo[b][1,4]oxazepin-3-yl)-4-((6-hydroxypyridin-2-yl)methyl)picolinamide] | 304 nM | 2830 nM
CN1C(=O)[C@@H](NC(=O)n2cc(Cc3cccnn3)cn2)COc2ccc(C#CC(C)(C)O)cc21 [I-17, (S)—N-(7-(3-Hydroxy-3-methylbut-1-yn-1-yl)-5-methyl-4-oxo-2,3,4,5-tetrahydrobenzo[b][1,4]oxazepin-3-yl)-4-(pyridazin-3-ylmethyl)-1H-pyrazole-1-carboxamide] | 111 nM | 715 nM
CN1C(=O)[C@@H](NC(=O)n2cc(Cc3ncccn3)cn2)COc2ccc(Br)cc21 [I-30, (S)—N-(7-Bromo-5-methyl-4-oxo-2,3,4,5-tetrahydrobenzo[b][1,4]oxazepin-3-yl)-4-(pyrimidin-2-ylmethyl)-1H-pyrazole-1-carboxamide] | 480 nM | 7210 nM
CN1C(=O)[C@@H](NC(=O)n2cc(Cc3ncccn3)cn2)COc2ccc(C#CC(C)(C)O)cc21 [I-31, (S)—N-(7-(3-Hydroxy-3-methylbut-1-yn-1-yl)-5-methyl-4-oxo-2,3,4,5-tetrahydrobenzo[b][1,4]oxazepin-3-yl)-4-(pyrimidin-2-ylmethyl)-1H-pyrazole-1-carboxamide] | 106 nM | 1980 nM
CN1C(=O)[C@@H](NC(=O)n2cc(Cc3ccc(F)nc3F)cn2)COc2ccc(Br)cc21 [I-49, (S)—N-(7-Bromo-5-methyl-4-oxo-2,3,4,5-tetrahydrobenzo[b][1,4]oxazepin-3-yl)-4-((2,6-difluoropyridin-3-yl)methyl)-1H-pyrazole-1-carboxamide] | 207 nM | 170 nM
